In brackets after ≈: the same amount, converted by molar mass. Bridge positions count the residues as written; N and C are the ends. Square brackets hold non-standard residues; d marks the D form. Peptide text beside a SMILES is read from it. S5 = C=CCCC[C@](C)(N)C(=O)O

By MIC is commonly meant the lowest concentration found to suppress growth. The term HC50 denotes the concentration giving 50% haemolysis.

In series [1] the test system is Staphylococcus aureus. As to the kind of experiment: Antibacterial activity against Methicillin-resistant Staphylococcus aureus 936 assessed as bacterial growth inhibition measured for 18 hrs by CLSI-protocol based Mueller-Hinton Broth micro-dilution assay. Type of series: functional. Background: Broth dilution looks for growth in wells or tubes with falling amounts of substance.

The next series relates to Klebsiella pneumoniae. As to the kind of experiment: Antibacterial activity against Klebsiella pneumoniae ATCC 700603 assessed as reduction in bacterial growth measured after 18 to 24 hrs by CLSI protocol-based Mueller-Hinton broth dilution method. The class given is functional. As to conditions: time 18-24 hrs.
For another series, the system named is Acinetobacter baumannii. Description: Antibacterial activity against multi-drug resistant Acinetobacter baumannii clinical isolate 9840 assessed as reduction in bacterial growth measured after 18 to 24 hrs by CLSI protocol-based Mueller-Hinton broth dilution method. Type of series: functional. The following applies: time 18-24 hrs.
Series [2] has as its system Staphylococcus aureus. Description: Antibacterial activity against Staphylococcus aureus ATCC 25923 assessed as reduction in bacterial growth measured after 18 to 24 hrs by CLSI protocol-based Mueller-Hinton broth dilution method. Type of series: functional. As to conditions: time 18-24 hrs.
The subject of series [3] is Bacillus subtilis. Description: Antibacterial activity against Bacillus subtilis ATCC 23857 assessed as reduction in bacterial growth measured after 18 to 24 hrs by CLSI protocol-based Mueller-Hinton broth dilution method. The class given is functional. As to conditions: time 18-24 hrs.
The subject of series [4] is Escherichia coli. As to the kind of experiment: Antibacterial activity against multi-drug resistant Escherichia coli clinical isolate 850 assessed as reduction in bacterial growth measured after 18 to 24 hrs by CLSI protocol-based Mueller-Hinton broth dilution method. The class given is functional. The following applies: time 18-24 hrs.
The subject of series [5] is Pseudomonas aeruginosa. As to the kind of experiment: Antibacterial activity against multi-drug resistant Pseudomonas aeruginosa clinical isolate 119 assessed as reduction in bacterial growth measured after 18 to 24 hrs by CLSI protocol-based Mueller-Hinton broth dilution method. The class given is functional. The following applies: time 18-24 hrs.
In series [6] the test system is Staphylococcus aureus. Description: Antibacterial activity against Staphylococcus aureus ATCC 25923 assessed as bacterial growth inhibition measured for 18 hrs by CLSI-protocol based Mueller-Hinton Broth micro-dilution assay. Type of series: functional.
Series [7] deals with Bacillus subtilis. Description: Antimicrobial activity against Bacillus subtilis ATCC 23857 assessed as reduction in microbial growth incubated for 18 to 20 hrs by Mueller-Hinton broth based microdilution method. The class given is functional. The following applies: time 18-20 hrs.
In the next series the test system is Enterococcus faecium. As to the kind of experiment: Antimicrobial activity against Enterococcus faecium assessed as reduction in microbial growth incubated for 18 to 20 hrs by Mueller-Hinton broth based microdilution method. The following applies: time 18-20 hrs. Type of series: functional.
In series [8] the test system is Escherichia coli. As to the kind of experiment: Antibacterial activity against Escherichia coli ATCC 25922 assessed as bacterial growth inhibition incubate for 18 to 20 hrs by MH broth based assay. The class given is functional. As to conditions: time 18-20 hrs.
Series [9] is described as follows: Hemolytic activity in human RBC. The following applies: red blood cells. The class given is toxicity, cell-based, Erythrocyte.
The nature of series [10]: Hemolytic activity in mouse RBC incubated for 1 hr. The class given is toxicity, cell-based, Erythrocyte. As to conditions: red blood cells.
Series [11] has as its system Staphylococcus aureus. As to the kind of experiment: Antimicrobial activity against Staphylococcus aureus ATCC 25923 assessed as reduction in microbial growth incubated for 18 to 20 hrs by Mueller-Hinton broth based microdilution method. The class given is functional. The following applies: time 18-20 hrs.
For series [12], the system named is Pseudomonas aeruginosa. Description: Antibacterial activity against Pseudomonas aeruginosa ATCC 27853 assessed as bacterial growth inhibition measured for 18 hrs by CLSI-protocol based Mueller-Hinton Broth micro-dilution assay. The class given is functional.
Series [13] deals with Staphylococcus aureus. Description: Antibacterial activity against Staphylococcus aureus ATCC 29213 assessed as bacterial growth inhibition measured for 18 hrs by CLSI-protocol based Mueller-Hinton Broth micro-dilution assay. Type of series: functional.
The subject of series [14] is Escherichia coli. As to the kind of experiment: Antibacterial activity against Escherichia coli K12 assessed as bacterial growth inhibition measured for 18 hrs by CLSI-protocol based Mueller-Hinton Broth micro-dilution assay. The class given is functional.
The next series relates to Salmonella typhimurium. As to the kind of experiment: Antibacterial activity against Salmonella enterica subsp. enterica serovar Typhimurium LT2 assessed as bacterial growth inhibition measured for 18 hrs by CLSI-protocol based Mueller-Hinton Broth micro-dilution assay. The class given is functional.
The test system of series [15] is Pseudomonas aeruginosa. Description: Antibacterial activity against Pseudomonas aeruginosa PAO1 assessed as bacterial growth inhibition measured for 18 hrs by CLSI-protocol based Mueller-Hinton Broth micro-dilution assay. Type of series: functional.
In series [16] the test system is Bacillus subtilis. Description: Antibacterial activity against Bacillus subtilis 168 assessed as bacterial growth inhibition measured for 18 hrs by CLSI-protocol based Mueller-Hinton Broth micro-dilution assay. The class given is functional.
In another series the test system is Erythrocyte. As to the kind of experiment: Hemolytic activity in sheep RBC incubated for 30 mins. Type of series: toxicity, cell-based, Ovis aries. As to conditions: 0.5 h.
For series [17], the system named is Escherichia coli. As to the kind of experiment: Antibacterial activity against Escherichia coli MG1655 assessed as bacterial growth inhibition measured for 18 hrs by CLSI-protocol based Mueller-Hinton Broth micro-dilution assay. Type of series: functional.
Series [18] has as its system Staphylococcus aureus. Description: Antibacterial activity against methicillin-resistant Staphylococcus aureus ATCC BAA1720 assessed as bacterial growth inhibition measured for 18 hrs by CLSI-protocol based Mueller-Hinton Broth micro-dilution assay. Type of series: functional.

For `CC[C@H](C)[C@H](NC(=O)[C@H](CCCNC(=N)N)NC(=O)[C@@H](CCCCN)NC(=O)[C@H](CC(C)C)NC(=O)[C@H](CC(C)C)NC(=O)CNC(=O)[C@H](CCCCn1cc(CC(NC(=O)[C@H](CC(C)C)NC(=O)[C@H](CC(C)C)NC(=O)[C@@H](NC(=O)[C@@H](CCCCN)NC(=O)[C@@H](NC(=O)[C@H](CCCNC(=N)N)NC(=O)[C@@H](CCCCN)NC(=O)[C@H](CC(C)C)NC(=O)[C@H](CC(C)C)NC(=O)CNC(C)=O)[C@@H](C)CC)[C@@H](C)O)C(N)=O)nn1)NC(C)=O)C(=O)N[C@H](CCCCN)C(=O)N[C@H](C(=O)N[C@@H](CC(C)C)C(=O)N[C@@H](CC(C)C)C(N)=O)[C@@H](C)O` (stereo partly specified), the minimum inhibitory concentration (MIC) with Staphylococcus aureus [1] came to 64 µM (≈ 169 µg/mL); with Klebsiella pneumoniae, 32 µM (≈ 84.5 µg/mL); in the series on Acinetobacter baumannii, 4 µM (≈ 10.6 µg/mL); with Staphylococcus aureus [2] it was 128 µM (≈ 338 µg/mL); in the series with Bacillus subtilis [3], 2 µM (≈ 5.28 µg/mL); in the series with Escherichia coli [4], 32 µM (≈ 84.5 µg/mL). For the same compound, the MIC in the series on Pseudomonas aeruginosa [5] turned out to be 16 µM (≈ 42.2 µg/mL); with Staphylococcus aureus [6], 64 µM (≈ 169 µg/mL).

For `CC(C)C[C@H](NC(=O)[C@H](CC(C)C)NC(=O)[C@H](CCCCN)NC(=O)[C@H](CCCCN)NC(=O)[C@H](Cc1c[nH]c2ccccc12)NC(=O)[C@H](CCCNC(=N)N)NC(=O)[C@H](CCCCN)NC(=O)[C@H](CC(C)C)NC(=O)[C@H](CC(C)C)NC(=O)[C@@H](N)Cc1c[nH]c2ccccc12)C(N)=O`, the MIC was 16 µM in the series on Bacillus subtilis [7], 16 µM in the series on Enterococcus faecium, 64 µM (≈ 88.5 µg/mL) with Escherichia coli [8] and 32 µM in the series on Staphylococcus aureus [11]. This compound displayed a 50% haemolytic concentration (HC50) in [9] of more than 200 µM. In addition, the HC50 at 1 h in [10] was more than 200 µM.

On to `CC[C@H](C)[C@H](NC(=O)[C@H](CCCNC(=N)N)NC(=O)[C@@H](CCCCN)NC(=O)[C@H](CC(C)C)NC(=O)[C@H](CC(C)C)NC(=O)CNC(C)=O)C(=O)N[C@H](CCCCN)C(=O)N[C@H](C(=O)N[C@@H](CC(C)C)C(=O)N[C@@H](CC(C)C)C(=O)NC(Cc1cn(CCCC[C@H](NC(=O)[C@H](CC(C)C)NC(=O)[C@H](CC(C)C)NC(=O)[C@@H](NC(=O)[C@@H](CCCCN)NC(=O)[C@@H](NC(=O)[C@H](CCCNC(=N)N)NC(=O)[C@@H](CCCCN)NC(=O)[C@H](CC(C)C)NC(=O)[C@H](CC(C)C)NC(=O)CNC(C)=O)[C@@H](C)CC)[C@@H](C)O)C(N)=O)nn1)C(N)=O)[C@@H](C)O` (stereo partly specified), for which the minimum inhibitory concentration (MIC) with Staphylococcus aureus [1] was 128 µM (≈ 338 µg/mL); with Klebsiella pneumoniae, 64 µM (≈ 169 µg/mL); in the series with Acinetobacter baumannii, 4 µM (≈ 10.6 µg/mL); in the series on Staphylococcus aureus [2], 128 µM (≈ 338 µg/mL); in the series with Bacillus subtilis [3] it was 4 µM (≈ 10.6 µg/mL); with Escherichia coli [4] it was 16 µM (≈ 42.2 µg/mL). For the same compound, the MIC in the series with Pseudomonas aeruginosa [5] was found to be 16 µM (≈ 42.2 µg/mL); with Staphylococcus aureus [6], 128 µM (≈ 338 µg/mL).

With `CC[C@H](C)[C@@H]1NC(=O)[C@@](C)(NC(=O)[C@H](CCCCN)NC(=O)[C@H](CC(C)C)NC(=O)[C@H](CC(C)C)NC(=O)CN)CCC/C=C\CCC[C@@](C)(C(=O)N[C@@H](CC(C)C)C(N)=O)NC(=O)[C@H]([C@@H](C)O)NC(=O)[C@H](CCCCN)NC1=O` (H-GLLK[S5]IKT[S5]L-NH2; staple (Z) 5-9), the MIC in the series with Pseudomonas aeruginosa [12] worked out at 32 µM (≈ 36.3 µg/mL); in the series on Staphylococcus aureus [13] it was 4 µM (≈ 4.54 µg/mL); with Escherichia coli [14], 8 µM (≈ 9.08 µg/mL); in the series on Salmonella typhimurium it was 32 µM (≈ 36.3 µg/mL); with Pseudomonas aeruginosa [15], 16 µM (≈ 18.2 µg/mL); in the series on Bacillus subtilis [16], 4 µM (≈ 4.54 µg/mL). For the same compound, the minimal inhibitory concentration (MIC) is 32 µM (≈ 36.3 µg/mL) in the series on Escherichia coli [17] and 4 µM (≈ 4.54 µg/mL) with Staphylococcus aureus [18]. This compound also showed an HC10 in the series with Erythrocyte of 8 µM.

The record behind these values is ChEMBL document CHEMBL5608163, “Structure modification of anoplin for fighting resistant bacteria” (Eur J Med Chem, 2024).
